# In patent publication US20220408756A1, “POULTRY FEED AND DRINKING WATER COMPOSITION COMPRISING MONOMETHYLSILANETRIOL” (RXW Group nv, priority 2019, published 2022):
# How the values were obtained:
# broiler chicken [1] = assay: Bone strength measurement (tibia); format: in vivo; settings: D41
# Procedure: (§1) A study was conducted to investigate the effect of silicium supplementation in drinking water of broiler chicken on their performance, locomotive system, skin healing and bone formation. Silicium was supplemented in 2 treatment groups. A third group was used as control and not treated with silicium. Silicium-monomethylsilanetriol (Si-MMST) was administrated at 2 different concentrations. More specific, Si-MMST was added to drinking water at 0.3 mg/l and 1.48 mg/l. These refer to the final silicium concentrations as measured by ICP-AES. Birds were moreover reared on humidified bedding material to simulate bad housing conditions and induce mild locomotive and skin complications. During the study, performance was assessed by weighing birds and monitoring feed intake on specific time points, separating the study in a starter, grower and finisher period. Additionally, mobility of the birds was assessed at the end of the grower (D33) and finisher period (D41) by means of gait scoring (Kestin et al., 1992). At the end of the trial (D41), footpad and chest lesions, femur head necrosis and tibia dyschondroplasy were assessed by qualified veterinarians, which also isolated 1 tibia per bird for bone strength and composition analysis. The main results of this study are summarizes in table 1.
# (§2) On D41, one tibia of each bird was collected for analysis. Initially, we selected 2 birds in each pen (first 2 numbers/pen) to obtain 50 samples for analysis of bone weight, fracture force (N), maximum force (N), stiffness (N/mm), bone dry matter (%), bone ash (%), phosphorus content (%), calcium content (%), copper content (mg/kg), manganese content (mg/kg) and zinc content (mg/kg). The results of bone strength measurement per treatment group are presented in table 9 and analysis on bone composition is represented in table 10.
# broiler chicken [2] = assay: Femur head necrosis and tibia dyschondroplasy scores; format: in vivo; design: Femur head necrosis score (mean): scale not given here; settings: D41; for Tibia dyschondroplasy score (mean) / Tibia dyschondroplasy, number of birds with score 0 / Tibia dyschondroplasy, number of birds with score 1 / Tibia dyschondroplasy, number of birds with score 2: unilateral, scale 0 to 2
# Procedure: as §1
# As 1 of the 2 tibia needs to be isolated unimpaired, tibia dyschondroplasy could only be scored unilateral. Therefore the tibia dyschondroplasy scoring ranges from 0 to 2 instead of 0 to 5.
# On D41, all birds were scored for femur head necrosis and tibia dyschondroplasy as described in table 8. No significant differences could be observed between the UC and silicium treated groups based on femur head necrosis and tibia dyschondroplasy.
# broiler chicken [3] = assay: Animal body weight and daily weight gain, broiler study with silicium in drinking water; format: in vivo; settings: for BW D0 (LSM): day 0; for BW D14 (LSM): day 14; for BW D33 (LSM): day 33
# Procedure: as §1, with “More specific, Si-MMST was added to drinking water at 0.3 mg/l and 1.48 mg/l.” left out
# Average daily weight gain (DWG) for example in starter period (D0-D14) was calculated, using following formula: […]
# Similar formula was used to calculate the DWG for all the experimental periods. Table 2 and 3 respectively show the body weight (BW) and daily weight gain (DWG) for the different time points or experimental periods.
# broiler chicken [4] = assay: Bone composition measurements (tibia); format: in vivo; settings: for Bone ash / Bone calcium content / Bone copper content / Bone dry matter / Bone phosphorus content / Bone zinc content: D41; for Bone manganese content: D41, values below detection limit (<5) set to 2.5
# Procedure: as §1, §2
# broiler chicken [5] = assay: Footpad and chest lesion scores; format: in vivo; design: Footpad lesion score (mean) / Chest lesion score (mean): scale not given here; settings: D41
# Procedure: as §1
# More specific, the average footpad lesion score decreased from 1.31 in the UC to 0.9 in the 0.3 mg/l Si-MMS treatment group.
# Stability in water = format: physicochemical
# Procedure: This organosilicon compound is highly bioavailable. […] MMST can advantageously be used without stabilizers in silicon equivalent concentrations up to 300 mg/l. The stability of MMST is dependent on concentration and declines at higher concentrations. The stability can be enhanced by the use of stabilizing agents.
# broiler chicken [6] = assay: Gait scoring (Kestin et al., 1992); format: in vivo; settings: day 33
# Procedure: as §1, with “The main results of this study are summarizes in table 1.” left out
# On D33 and D41, mobility of the birds was evaluated individually by using the gait scoring chart as described by Kestin et al., 1992. […]
# broiler chicken [7] = assay: Feed consumption and feed conversion; format: in vivo
# Procedure: as §1
# The total feed weight was measured per pen when switching between feed compositions. The feed weight (“Feed IN”) was measured and recorded on D0, D14, D33 and D41. Two pens during grower period and all pens during finisher period were supplemented with extra feed to enable at libitum feeding. This extra feed was also weighed and recorded as “Feed IN”. The remaining feed in each pen (“Feed OUT”) was weighed and recorded on D14, D33 and D41. The feed intake (=difference in feed weight at beginning and the end of the experimental period) was calculated for each group per study period. The average daily feed intake (DFI) was calculated for the experimental period using the feed intake data by using following formula: […]
# The Feed Conversion Ratio (FCR) was calculated for each of the above mentioned study periods, using following formula: […]
# [8] = 0.3 mg/l Si-MMST in drinking water
# [9] = 1.48 mg/l Si-MMST in drinking water
structure (smiles),measurement,setting,value
"C[Si](O)(O)O [Si-MMST, monomethylsilanetriol]",Bone weight (mean),broiler chicken [1]; [8],12.3 g
same,Fracture force (mean),broiler chicken [1]; [8],360.7 N
same,Maximum force (mean),broiler chicken [1]; [8],372.5 N
same,Stiffness (mean),broiler chicken [1]; [8],148.8 N/mm
same,Bone weight (mean),broiler chicken [1]; [9],13.2 g
same,Fracture force (mean),broiler chicken [1]; [9],400.6 N
same,Maximum force (mean),broiler chicken [1]; [9],409.6 N
same,Stiffness (mean),broiler chicken [1]; [9],164.3 N/mm
same,Femur head necrosis score (mean),broiler chicken [2]; [8],1.29
same,"Femur head necrosis, number of birds with score 0",broiler chicken [2]; [8],10
same,"Femur head necrosis, number of birds with score 1",broiler chicken [2]; [8],15
same,"Femur head necrosis, number of birds with score 2",broiler chicken [2]; [8],24
same,"Femur head necrosis, number of birds with score 3",broiler chicken [2]; [8],0
same,"Femur head necrosis, number of birds with score 5",broiler chicken [2]; [8],0
same,Tibia dyschondroplasy score (mean),broiler chicken [2]; [8],0.10
same,"Tibia dyschondroplasy, number of birds with score 0",broiler chicken [2]; [8],44
same,"Tibia dyschondroplasy, number of birds with score 1",broiler chicken [2]; [8],5
same,"Tibia dyschondroplasy, number of birds with score 2",broiler chicken [2]; [8],0
same,Femur head necrosis score (mean),broiler chicken [2]; [9],1.2
same,"Femur head necrosis, number of birds with score 0",broiler chicken [2]; [9],15
same,"Femur head necrosis, number of birds with score 1",broiler chicken [2]; [9],7
same,"Femur head necrosis, number of birds with score 2",broiler chicken [2]; [9],22
same,"Femur head necrosis, number of birds with score 3",broiler chicken [2]; [9],1
same,"Femur head necrosis, number of birds with score 5",broiler chicken [2]; [9],0
same,Tibia dyschondroplasy score (mean),broiler chicken [2]; [9],0.09
same,"Tibia dyschondroplasy, number of birds with score 0",broiler chicken [2]; [9],41
same,"Tibia dyschondroplasy, number of birds with score 1",broiler chicken [2]; [9],4
same,"Tibia dyschondroplasy, number of birds with score 2",broiler chicken [2]; [9],0
same,BW D0 (LSM),broiler chicken [3]; 0.3 mg/l Si-MMST in drinking water (Si-MMST 1),48 g
same,DWG D0-14 (LSM),broiler chicken [3]; [8],25.6 g
same,DWG D0-41 (LSM),"broiler chicken [3]; 0.3 mg/l Si-MMST in drinking water, D0-41",63.1 g
same,DWG D14-33 (LSM),broiler chicken [3]; [8],70.6 g
same,DWG D33-41 (LSM),broiler chicken [3]; [8],111.1 g
same,BW D14 (LSM),broiler chicken [3]; [8],407 g
same,BW D33 (LSM),broiler chicken [3]; [8],1748 g
same,BW D41 (LSM),"broiler chicken [3]; 0.3 mg/l Si-MMST in drinking water, day 41",2636 g
same,DWG over the complete study period (D0-D41) versus control,"broiler chicken [3]; 1.433 mg/l Si-MMST in drinking water, D0-D41",significantly increased
same,body weight on day 41 versus control,"broiler chicken [3]; 1.433 mg/l Si-MMST in drinking water, day 41",significantly increased
same,BW D0 (LSM),broiler chicken [3]; 1.48 mg/l Si-MMST in drinking water (Si-MMST 2),48 g
same,DWG D0-14 (LSM),broiler chicken [3]; [9],25.8 g
same,DWG D14-33 (LSM),broiler chicken [3]; [9],77.6 g
same,DWG D33-41 (LSM),broiler chicken [3]; [9],111.1 g
same,BW D14 (LSM),broiler chicken [3]; [9],410 g
same,BW D33 (LSM),broiler chicken [3]; [9],1883 g
same,BW on day 41,"broiler chicken [3]; 1.48 mg/l Si-MMST in drinking water, day 41, UC 2.622 kg",2.775 kg
same,Bone ash,broiler chicken [4]; [8],22.6%
same,Bone calcium content,broiler chicken [4]; [8],35.3%
same,Bone copper content,broiler chicken [4]; [8],3.3 mg/kg
same,Bone dry matter,broiler chicken [4]; [8],49.0%
same,Bone phosphorus content,broiler chicken [4]; [8],17.8%
same,Bone zinc content,broiler chicken [4]; [8],326.9 mg/kg
same,Bone manganese content,broiler chicken [4]; [8],7.4 mg/kg
same,Bone ash,broiler chicken [4]; [9],22.9%
same,Bone calcium content,broiler chicken [4]; [9],35.1%
same,Bone copper content,broiler chicken [4]; [9],3.2 mg/kg
same,Bone dry matter,broiler chicken [4]; [9],49.1%
same,Bone phosphorus content,broiler chicken [4]; [9],17.6%
same,Bone zinc content,broiler chicken [4]; [9],340.3 mg/kg
same,Bone manganese content,broiler chicken [4]; [9],8.2 mg/kg
same,Chest lesion score (mean),broiler chicken [5]; [8],0.02
same,"Chest lesion, number of birds with score 0",broiler chicken [5]; [8],48
same,"Chest lesion, number of birds with score 1",broiler chicken [5]; [8],1
same,Footpad lesion score (mean),broiler chicken [5]; [8],0.9
same,"Footpad lesion, number of birds with score 0",broiler chicken [5]; [8],19
same,"Footpad lesion, number of birds with score 1",broiler chicken [5]; [8],16
same,"Footpad lesion, number of birds with score 2",broiler chicken [5]; [8],14
same,Chest lesion score (mean),broiler chicken [5]; [9],0.00
same,"Chest lesion, number of birds with score 0",broiler chicken [5]; [9],45
same,"Chest lesion, number of birds with score 1",broiler chicken [5]; [9],0
same,Footpad lesion score (mean),broiler chicken [5]; [9],1.04
same,"Footpad lesion, number of birds with score 0",broiler chicken [5]; [9],8
same,"Footpad lesion, number of birds with score 1",broiler chicken [5]; [9],27
same,"Footpad lesion, number of birds with score 2",broiler chicken [5]; [9],10
same,silicon equivalent concentration usable without stabilizers,"Stability in water; in water, without stabilizers",up to 300 mg/l
same,stability in water,Stability in water; low concentrations,sufficiently stable
same,Gait score D33 (mean),broiler chicken [6]; [8],0.26
same,Gait score D33 (mean),broiler chicken [6]; [9],0.27
same,DFI D0-14 (mean),broiler chicken [7]; [8],24.9 g
same,FCR D0-14 (mean),broiler chicken [7]; [8],1.0
same,DFI D0-41 (mean),broiler chicken [7]; [8],117.4 g
same,FCR D0-41 (mean),broiler chicken [7]; [8],1.9
same,DFI D14-33 (mean),broiler chicken [7]; [8],141.2 g
same,FCR D14-33 (mean),broiler chicken [7]; [8],2.0
same,DFI D33-41 (mean),broiler chicken [7]; [8],207.0 g
same,FCR D33-41 (mean),broiler chicken [7]; [8],1.9
same,DFI D0-14 (mean),broiler chicken [7]; [9],25.0 g
same,FCR D0-14 (mean),broiler chicken [7]; [9],1.0
same,DFI D0-41 (mean),broiler chicken [7]; [9],114.4 g
same,FCR D0-41 (mean),broiler chicken [7]; [9],1.8
same,DFI D14-33 (mean),broiler chicken [7]; [9],132.7 g
same,FCR D14-33 (mean),broiler chicken [7]; [9],1.7
same,DFI D33-41 (mean),broiler chicken [7]; [9],218.5 g
same,FCR D33-41 (mean),broiler chicken [7]; [9],2.1
same,daily feed intake versus control,"broiler chicken [7]; MMST supplemented treatment groups, all study periods and D0-D41",higher than the control
